13 compounds from patent US11596692B1 (Incyte Corporation, priority 2018, dated 2023) can be followed below.

The target of one test is PD-L1 (Homo sapiens (Human), UniProt Q9NZQ7). The experiment in a line: PD-L1 surface levels on HEK293T STING reporter cells, high PD-L1. Format: cell-based. On the procedure: To determine PD-L1 expression on HEK cells after treatment of PD-L1-small molecule conjugated STING agonists, cells were harvested at 20 hours post-treatment. Single cell suspensions were then stained with phycoerythrin-conjugated anti-PD-L1 antibody (BD Bioscience), and the PD-L1 expression were then analyzed by flow cytometry. Mean fluorescence intensity was used as the relative level of surface PD-L1 expression on cells (FIG. 1 and Table 6).
Chain of PD-L1 (Q9NZQ7 19-290): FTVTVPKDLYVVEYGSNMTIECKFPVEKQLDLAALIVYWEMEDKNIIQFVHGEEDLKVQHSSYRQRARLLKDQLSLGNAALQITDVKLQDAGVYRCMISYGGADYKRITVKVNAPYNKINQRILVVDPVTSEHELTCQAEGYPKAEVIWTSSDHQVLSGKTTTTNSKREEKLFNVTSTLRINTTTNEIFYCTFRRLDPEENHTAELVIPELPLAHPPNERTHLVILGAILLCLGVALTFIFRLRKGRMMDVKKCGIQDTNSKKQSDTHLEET
Also, cells were stained with PE-conjugated anti-human PD-L1 antibody to determine surface PD-L1 expression. Cell acquisition was performed on BD LSRFortessa X-20 (BD Biosciences). Data was analyzed using FlowJo software. IC50 values were calculated using Prism Software.

Test [1] relates to IRF3 activation in PD-L1 low HEK293T STING reporter cell line. The test can be described thus: IRF3 activation in HEK293T STING reporter cells, low PD-L1. Format: cell-based, human. The settings on record: 20 hours, read-out: IRF Activation EC50 (nM), Low PD-L1. As for the experimental part: (§1) HEK293T STING reporter cell line was purchased from Invivogen and expressed low level of PD-L1. This cell line was then engineered at Incyte Research Institute to overexpress human PD-L1. Both PD-L1 high and PD-L1 low HEK293T cell lines were plated at 100,000 cells/100 μL/well in 10% fetal calf serum-containing DMEM culture medium in a 96-well flat bottom plate. Serial dilutions of PD-L1 small molecule-conjugated STING agonists were then added to the corresponding wells, and incubated for 20 hours at 37° C. In a competition study setting, 1 μM of a PD-L1 small molecule was added in the corresponding wells to compete with the binding of PD-L1 small molecule-conjugated STING agonists. At the end of the incubation, the culture supernatants were carefully removed from each well, and the amount of IRF3 activation was determined by adding Quanti-Blue substrate in accordance with the manufacturer's protocol.
(§2) 293T-Dual hSTING-R232 (ISG/KI-IFNb) cells that were generated from 293T-Dual Null (ISG/KI-IFNb) cells by stable transfection of the R232 isoform of human STING were purchased from Invivogen (Invivogen #293d-r232).
(§3) This cell line expresses an ISRE-inducible SEAP (secreted embryonic alkaline phosphatase) reporter construct, which monitors the activation of interferon regulatory factor (IRF) and its binding to ISRE (IFN-stimulated response elements). These reporter cells express low level of PD-L1. Human PD-L1 was then overexpressed in these cells through stable transfection.
(§4) These 293T-Dual hSTING-R232 reporter cells as well as293T-Dual hSTING-R232 reporter cells overexpressing huPD-L1 were treated with various concentrations of STING compounds for 20 hours. After 20 hours, interferon regulatory factor (IRF) activity was assessed by measuring SEAP levels in the supernatant using QUNTI-Blue. EC50 values were generated by curve fit in Prism software.

The subject of test [2] is IRF3 activation in PD-L1 high HEK293T STING reporter cell line. The test can be described thus: IRF3 activation in HEK293T STING reporter cells, high PD-L1. Format: cell-based, human. The settings on record: high PD-L1 cells, 20 hours; read-out: IRF Activation EC50 (nM), High PD-L1. As for the experimental part:
as §1, §2, §3, §4

A word on the IC50: it is the concentration at which inhibition is half-maximal. Higher therefore signals weaker potency. As usually defined, the EC50 is the concentration at which the effect is half-maximal. `CCn1nc(C)cc1C(=O)Nc1nc2cc(C(N)=O)cc(OC)c2n1C/C=C/Cn1c(NC(=O)c2cc(C)nn2CC)nc2cc(C(N)=O)cc(OCCCNC(=O)[C@@H](NC(=O)[C@H](CC(=O)O)NC(=O)[C@H](CC(=O)O)NC(=O)[C@H](CCCNC(=N)N)NC(=O)[C@H](CC(=O)O)NC(=O)CCCN3CCc4c(nc(C(=O)Nc5cccc(-c6cccc(NC(=O)c7nc8c(n7C)CCN(CCCC(=O)O)C8)c6Cl)c5Cl)n4C)C3)C(C)(C)C)c21` [Example 20]: on PD-L1, the IC50 is below 50 nM. For the same compound, the EC50 in test [1] is 50 to 200 nM; in test [2], below 50 nM.
At PD-L1, `CCn1nc(C)cc1C(=O)Nc1nc2cc(C(N)=O)cc(OCCCNC(=O)[C@H](CC(=O)O)NC(=O)[C@H](CC(=O)O)NC(=O)[C@H](CCCNC(=N)N)NC(=O)[C@H](CC(=O)O)NC(=O)CCCN3CCc4c(nc(C(=O)Nc5cccc(-c6cccc(NC(=O)c7nc8c(n7C)CCN(CCCC(=O)O)C8)c6Cl)c5Cl)n4C)C3)c2n1C/C=C/Cn1c2nc(-c3cc(C)nn3CC)ncc2c2cc(C(N)=O)cc(OCCCOC)c21` [Example 23] gave an IC50 below 50 nM. For the same compound, the EC50 in test [1] was 50 to 200 nM; in test [2], below 50 nM.
As for `CCn1nc(C)cc1C(=O)Nc1nc2cc(C(N)=O)cc(OC)c2n1C/C=C/Cn1c(NC(=O)c2cc(C)nn2CC)nc2cc(C(N)=O)cc(OCCCNC(=O)[C@H](CC(=O)O)NC(=O)[C@H](CCCNC(=N)N)NC(=O)[C@H](CC(=O)O)NC(=O)[C@H](CC(=O)O)NC(=O)CCCN3CCc4c(nc(C(=O)Nc5cccc(-c6cccc(NC(=O)c7nc8c(n7C)CCN(CCCC(=O)O)C8)c6Cl)c5Cl)n4C)C3)c21` [Example 16], the IC50 on PD-L1 was below 50 nM. Also, the EC50 in test [1] and in test [2] was below 50 nM in each case.
The compound `CCn1nc(C)cc1C(=O)Nc1nc2cc(C(N)=O)cc(OCCCNC(=O)[C@H](CC(=O)O)NC(=O)[C@H](CC(=O)O)NC(=O)[C@H](CCCNC(N)=O)NC(=O)[C@H](CC(=O)O)NC(=O)CCCN3CCc4c(nc(C(=O)Nc5cccc(-c6cccc(NC(=O)c7nc8c(n7C)CCN(CCCC(=O)O)C8)c6Cl)c5Cl)n4C)C3)c2n1C/C=C/Cn1c2nc(-c3cc(C)nn3CC)ncc2c2cc(C(N)=O)cc(OC)c21` [Example 21] registered an IC50 at PD-L1 below 50 nM. Moreover, the EC50 in test [1] was 50 to 200 nM; in test [2], below 50 nM.
`CCn1nc(C)cc1C(=O)Nc1nc2cc(C(N)=O)cc(OC)c2n1C/C=C/Cn1c(NC(=O)c2cc(C)nn2CC)nc2cc(C(N)=O)cc(OCCCNC(=O)[C@H](CCC(=O)O)NC(=O)[C@H](CCC(=O)O)NC(=O)[C@H](CCCNC(=N)N)NC(=O)[C@H](CCC(=O)O)NC(=O)CCCN3CCc4c(nc(C(=O)Nc5cccc(-c6cccc(NC(=O)c7nc8c(n7C)CCN(CCCC(=O)O)C8)c6Cl)c5Cl)n4C)C3)c21` [Example 19] registered an IC50 on PD-L1 below 50 nM. Moreover, the EC50 in test [1] was 50 to 200 nM; in test [2], below 50 nM.
`CCn1nc(C)cc1C(=O)Nc1nc2cc(C(N)=O)cc(OC)c2n1C/C=C/Cn1c(NC(=O)c2cc(C)nn2CC)nc2cc(C(N)=O)cc(OCCCNC(=O)[C@H](CC(=O)O)NC(=O)[C@H](CC(=O)O)NC(=O)[C@H](CCCCN)NC(=O)[C@H](CC(=O)O)NC(=O)CCCN3CCc4c(nc(C(=O)Nc5cccc(-c6cccc(NC(=O)c7nc8c(n7C)CCN(CCCC(=O)O)C8)c6Cl)c5Cl)n4C)C3)c21` [Example 18] returned an IC50 against PD-L1 below 50 nM. Besides, the EC50 in test [1] and in test [2] was below 50 nM each time.
`CCn1nc(C)cc1C(=O)Nc1nc2cc(C(N)=O)cc(OC)c2n1C/C=C/Cn1c(NC(=O)c2cc(C)nn2CC)nc2cc(C(N)=O)cc(OCCCNC(=O)[C@H](CC(=O)O)NC(=O)[C@H](CC(=O)O)NC(=O)[C@H](CC(=O)O)NC(=O)[C@H](CC(=O)O)NC(=O)[C@H](CC(=O)O)NC(=O)[C@H](CC(=O)O)NC(=O)[C@H](CC(=O)O)NC(=O)CCCN3CCc4c(nc(C(=O)Nc5cccc(-c6cccc(NC(=O)c7nc8c(n7C)CCN(CCCC(=O)O)C8)c6Cl)c5Cl)n4C)C3)c21` [Example 14] came in with an IC50 on PD-L1 below 50 nM. For the same compound, the 50% effective concentration (EC50) in test [1] was 50 to 200 nM; in test [2] it was below 50 nM.
For `CCn1nc(C)cc1C(=O)Nc1nc2cc(C(N)=O)cc(OCCCNC(=O)[C@H](CC(=O)O)NC(=O)[C@H](CC(=O)O)NC(=O)[C@H](CCCNC(=N)N)NC(=O)[C@H](CC(=O)O)NC(=O)[C@H](CC(=O)O)NC(=O)[C@H](CC(=O)O)NC(=O)[C@H](CCCNC(=N)N)NC(=O)[C@H](CC(=O)O)NC(=O)CCCN3CCc4c(nc(C(=O)Nc5cccc(-c6cccc(NC(=O)c7nc8c(n7C)CCN(CCCC(=O)O)C8)c6Cl)c5Cl)n4C)C3)c2n1C/C=C/Cn1c2nc(-c3cc(C)nn3CC)ncc2c2cc(C(N)=O)cc(OC)c21` [Example 22], the IC50 at PD-L1 is below 50 nM. The EC50 in test [1] and in test [2] was below 50 nM throughout.
On PD-L1, `CCn1nc(C)cc1C(=O)Nc1nc2cc(C(N)=O)cc(OC)c2n1C/C=C/Cn1c(NC(=O)c2cc(C)nn2CC)nc2cc(C(N)=O)cc(OCCCNC(=O)[C@H](CC(=O)O)NC(=O)[C@H](CC(=O)O)NC(=O)[C@H](CCCNC(=N)N)NC(=O)[C@H](CC(=O)O)NC(=O)[C@H](CC(=O)O)NC(=O)[C@H](CC(=O)O)NC(=O)[C@H](CCCNC(=N)N)NC(=O)[C@H](CC(=O)O)NC(=O)CCCN3CCc4c(nc(C(=O)Nc5cccc(-c6cccc(NC(=O)c7nc8c(n7C)CCN(CCCC(=O)O)C8)c6Cl)c5Cl)n4C)C3)c21` [Example 15] came in with an IC50 below 50 nM. The values for the EC50 in test [1] and in test [2] were 50 to 200 nM and below 50 nM, respectively.
Turning to `CCn1nc(C)cc1C(=O)Nc1nc2cc(C(N)=O)cc(OC)c2n1C/C=C/Cn1c(NC(=O)c2cc(C)nn2CC)nc2cc(C(N)=O)cc(OCCCNC(=O)[C@H](CC(=O)O)NC(=O)[C@H](CC(=O)O)NC(=O)[C@H](CC(=O)O)NC(=O)[C@H](CCCNC(=N)N)NC(=O)CCCN3CCc4c(nc(C(=O)Nc5cccc(-c6cccc(NC(=O)c7nc8c(n7C)CCN(CCCC(=O)O)C8)c6Cl)c5Cl)n4C)C3)c21` [Example 17], at PD-L1, the IC50 is below 50 nM. In addition, the values for the EC50 in test [1] and in test [2] were 50 to 200 nM and below 50 nM, respectively.
`CCn1nc(C)cc1C(=O)Nc1nc2cc(C(N)=O)cc(OCCCNC(=O)CCNC(=O)OCc3ccc(NC(=O)[C@H](CCCNC(N)=O)NC(=O)[C@@H](NC(=O)Cn4cc(CCNC(=O)[C@H](CC(=O)O)NC(=O)[C@H](CC(=O)O)NC(=O)[C@H](CCCNC(=N)N)NC(=O)[C@H](CC(=O)O)NC(=O)CCCN5CCc6c(nc(C(=O)Nc7cccc(-c8cccc(NC(=O)c9nc%10c(n9C)CCN(CCCC(=O)O)C%10)c8Cl)c7Cl)n6C)C5)nn4)C(C)C)cc3)c2n1C/C=C/Cn1c2nc(-c3cc(C)nn3CC)ncc2c2cc(C(N)=O)cc(OC)c21` [Example 9] gave an IC50 against PD-L1 of 50 to 200 nM. Besides, the EC50 in test [1] is 200 to 1000 nM; in test [2], below 50 nM.
Consider `CCn1nc(C)cc1C(=O)Nc1nc2cc(C(N)=O)cc(OC)c2n1C/C=C/Cn1c(NC(=O)c2cc(C)nn2CC)nc2cc(C(N)=O)cc(OCCCNC(=O)[C@H](CC(=O)O)NC(=O)[C@H](CC(=O)O)NC(=O)[C@H](CCCNC(=N)N)NC(=O)[C@H](CC(=O)O)NC(=O)CCNC(=O)C3CCN(Cc4cc(C#N)c5oc(-c6cccc(-c7cccc(Nc8nc(C(F)F)nc9cc(CN%10CC[C@@H](O)C%10)cnc89)c7C)c6C)nc5c4)CC3)c21` [Example 8], for which the IC50 at PD-L1 was 200 to 1000 nM. Further, the EC50 in test [1] was 50 to 200 nM; in test [2], below 50 nM.
The like results for `CCn1nc(C)cc1C(=O)Nc1nc2cc(C(N)=O)cc(OC)c2n1C/C=C/Cn1c(NC(=O)c2cc(C)nn2CC)nc2cc(C(N)=O)cc(OCCCNC(=O)[C@H](CC(=O)O)NC(=O)[C@H](CC(=O)O)NC(=O)[C@H](CC(=O)O)NC(=O)[C@H](CC(=O)O)NC(=O)[C@H](CC(=O)O)NC(=O)CCCN3CCc4c(nc(C(=O)Nc5cccc(-c6cccc(NC(=O)c7nc8c(n7C)CCN(CCCC(=O)O)C8)c6Cl)c5Cl)n4C)C3)c21` [Example 13] were, in that order, below 50 nM, 50 to 200 nM and below 50 nM.
